In patent US20220054535A1, “STRONTIUM BASED COMPOSITIONS AND FORMULATIONS FOR PAIN, PRURITUS, AND INFLAMMATION” (STRONTIUM NEUROGENICS INC., priority 2018, published 2022):

How the values were obtained:
TCN activation = assay: Burning pain and stinging from highly acidic chemical peel (70% glycolic acid, pH 0.6); type: in vivo; conditions: strontium mixed with the acid (70% glycolic acid, pH 0.6)
Method: Nociceptors also have a CaSR that inhibits nociceptor activation when the extracellular concentration of calcium is raised above normal, or if a similar concentration of strontium is administered. […] When strontium is mixed with the acid, burning pain and stinging is suppressed by 80% or more so that any remaining sensory irritation is not bothersome.

IL-17 = target: T1, IL-17 (Homo sapiens, UniProt Q16552); assay: Preliminary investigations on the psoriasis inflammatory/keratinocyte cycle, IL-17
T1 sequence (Q16552 24-155): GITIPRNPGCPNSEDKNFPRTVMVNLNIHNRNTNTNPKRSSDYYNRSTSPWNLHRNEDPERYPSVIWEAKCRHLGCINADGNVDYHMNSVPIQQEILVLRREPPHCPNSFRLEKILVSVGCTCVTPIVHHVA
Excerpt: (§1) The present disclosure is premised on the belief that the psoriatic cycle begins with a triggering event such as trauma, infection, or stress that causes the keratinocytes to become stressed and activates dendritic cells. The dendritic cells release IL-12 and IL-23, which in turn stimulate Th17 and Th1 cells […]. Th17 releases […] which stimulates inflammation. Similarly, Th1 cells release […] which stimulates inflammation. Th1 cells also stimulate keratinocyte division leading to the formation of plaques. The activation of immune cells releases cytokines which also activates keratinocytes. The interaction between the immune system and keratinocyte activation becomes a self-feeding cycle.
(§2) Applicants' preliminary investigations indicate that strontium can break up the inflammatory/keratinocyte cycle of psoriasis, specifically by blocking the IL-17 and TNF-alpha. By targeting and blocking the two main pathways that activated dendritic cells use to trigger a psoriatic episode, strontium has immense potential as a therapeutic for psoriasis.

TNF-alpha = TNF-alpha (Homo sapiens, UniProt P01375); assay: Preliminary investigations on the psoriasis inflammatory/keratinocyte cycle, TNF-alpha
Chain of TNF-alpha (P01375 77-233 limits assumed, species assumed): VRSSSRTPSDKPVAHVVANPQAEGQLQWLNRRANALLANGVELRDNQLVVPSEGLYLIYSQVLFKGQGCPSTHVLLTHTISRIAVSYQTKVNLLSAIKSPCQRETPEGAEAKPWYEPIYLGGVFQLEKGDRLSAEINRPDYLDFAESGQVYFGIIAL
Excerpt: as §1, §2

TLR-4 = TLR-4 (Homo sapiens, UniProt O00206); assay: Preliminary data in atopic dermatitis pathways, TLR-4
Chain of TLR-4 (O00206 24-839, species assumed): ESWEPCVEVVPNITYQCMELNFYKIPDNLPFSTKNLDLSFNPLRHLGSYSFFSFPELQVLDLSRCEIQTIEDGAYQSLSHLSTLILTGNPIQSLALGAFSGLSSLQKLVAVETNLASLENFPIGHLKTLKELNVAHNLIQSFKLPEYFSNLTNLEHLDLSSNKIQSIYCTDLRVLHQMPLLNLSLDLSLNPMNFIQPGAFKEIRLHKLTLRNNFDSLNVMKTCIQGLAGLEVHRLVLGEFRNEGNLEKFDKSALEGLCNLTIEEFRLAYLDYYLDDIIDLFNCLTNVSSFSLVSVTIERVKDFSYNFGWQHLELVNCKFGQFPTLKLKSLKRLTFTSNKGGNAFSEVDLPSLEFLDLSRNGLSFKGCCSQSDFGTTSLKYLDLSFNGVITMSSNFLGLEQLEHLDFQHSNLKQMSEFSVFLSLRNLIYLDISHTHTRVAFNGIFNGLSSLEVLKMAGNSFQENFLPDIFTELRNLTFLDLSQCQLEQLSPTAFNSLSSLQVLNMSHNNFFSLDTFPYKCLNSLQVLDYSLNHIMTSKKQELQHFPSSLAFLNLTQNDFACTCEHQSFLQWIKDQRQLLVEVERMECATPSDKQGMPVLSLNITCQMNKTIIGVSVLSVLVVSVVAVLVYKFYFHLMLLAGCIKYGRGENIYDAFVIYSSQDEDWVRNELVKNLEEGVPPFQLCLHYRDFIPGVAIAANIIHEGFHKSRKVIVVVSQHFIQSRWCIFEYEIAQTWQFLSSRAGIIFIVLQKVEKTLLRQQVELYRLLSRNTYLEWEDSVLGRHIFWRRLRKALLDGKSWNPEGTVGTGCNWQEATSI
Chain of TLR-4 (Q9Y6Y9 17-160 partner limits assumed, species assumed): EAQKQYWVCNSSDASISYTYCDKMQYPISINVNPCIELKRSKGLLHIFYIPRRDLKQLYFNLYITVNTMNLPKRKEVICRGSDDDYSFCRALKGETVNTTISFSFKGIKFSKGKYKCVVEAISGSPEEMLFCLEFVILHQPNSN
Excerpt: The present disclosure is premised on the belief that people with atopic dermatitis have higher levels of Staphylococcus aureus on their skin. The higher bacterial levels trigger an immune response via the toll-like receptors, in particular toll-like receptor 4 (TLR-4). The present disclosure is also premised on the belief that continual activation of TLR-4 contributes to the chronic nature of atopic dermatitis.

MMP = assay: Preliminary data in atopic dermatitis pathways, MMP activity
Excerpt: Other molecular pathways activated in atopic dermatitis include matrix metalloproteinases (MMPs). MMPs are a family of enzymes capable of breaking down extracellular matrix proteins, including connective tissues.

HSV1 = assay: Preliminary investigations on HSV1 symptoms; type: in vivo
Excerpt: Without wishing to be bound by any one theory, it is believed that strontium's ability to block NF-Kappa B contributes to minimizing the symptoms associated with an active infection. As mentioned above, HSV 1 and 2 require the activation of NF-Kappa B for de novo virus synthesis. By blocking NF-Kappa B, strontium is essentially stopping the infection at an early stage.

[1] = Preliminary investigations on post herpetic neuralgia pain; type: in vivo
[2] = test system: synchronous neurotransmitter release in response to TCN activation; conditions: strontium substitutes for calcium; cited from earlier work
CICR pathway = conditions: cited from earlier work

[Sr+2] [strontium, Strontium]
suppression of burning pain and stinging (TCN activation): ≥ 80%
blocking of IL-17 (IL-17): blocking
blocking of TNF-alpha (TNF-alpha): blocking
TLR-4 activity (TLR-4): can block
MMP activity (MMP): can block
pain, itch, and rash/blister formation associated with HSV1 (HSV1): can reduce and or eliminate
pain associated with PHN [1]: can reduce or block
reduction of amplitude of synchronous neurotransmitter release [2]: more than 90%
ability to induce CICR relative to calcium (CICR pathway): over a hundred-fold less active than calcium
concentration reached in the ER, greater than calcium (CICR pathway; in the ER): more than 150%
